Data reported in patent US20180235949A1 (priority 2015, published 2018).
Where two headings read alike, the source gives them in different places.

Tests used:
κ (KOP) = κ (KOP) (Rattus norvegicus, UniProt P34975); format: binding
α2B (h) [1] = target: T1, α2B (h) (Homo sapiens, UniProt P18089); assay: α2B (h) (antagonist radioligand) binding; settings: for nH: α2B (h) (antagonist radioligand)
T1 sequence (P18089 1-450): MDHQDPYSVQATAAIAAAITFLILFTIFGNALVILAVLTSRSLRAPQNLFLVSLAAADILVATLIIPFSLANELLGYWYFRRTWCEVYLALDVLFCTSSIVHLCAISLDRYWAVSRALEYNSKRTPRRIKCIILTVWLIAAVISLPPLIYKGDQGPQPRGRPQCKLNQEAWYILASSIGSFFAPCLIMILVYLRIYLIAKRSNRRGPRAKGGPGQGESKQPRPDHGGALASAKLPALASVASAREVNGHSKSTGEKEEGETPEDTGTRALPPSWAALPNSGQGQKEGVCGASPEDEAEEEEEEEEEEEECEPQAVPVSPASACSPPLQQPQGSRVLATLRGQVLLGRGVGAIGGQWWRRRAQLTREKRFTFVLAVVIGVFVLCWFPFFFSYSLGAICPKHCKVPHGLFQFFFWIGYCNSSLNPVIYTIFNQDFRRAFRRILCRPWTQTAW
Protocol: (§1) Representative compounds were tested to determine IC50 or EC50 in receptor functional assays. One or more of the procedures disclosed in the following references were used: Devedjian, J. C. et al., Eur. J. Pharmacol., 1994, 252, 43-49; Wang, J. B. et al., FEBS Lett., 1994, 338, 217-222; Simonin, F. et al., Mol. Pharmacol., 1994, 46, 1015-1021; Meng, F. et al., Proc. Natl. Acad. Sci. U.S.A., 1993, 90, 9954-9958; Avidor-Reiss, T. et al., FEBS Lett., 1995, 361, 70-74; Eason, M. G. et al., J. Biol. Chem., 1992, 267, 15795-15801; Law, P. Y. et al., Mol. Pharmacol., 1993, 43, 684-693. In each experiment and if applicable, the respective reference compound was tested concurrently with the test compounds. Compound binding was calculated as a % inhibition of the binding of a radioactively labeled ligand specific for each target. Cellular agonist effect was calculated as a % of control response to a known reference agonist for each target and cellular antagonist effect was calculated as a % inhibition of control reference agonist response for each target. Only the calculable IC50 and EC50 are reported below.

μ (MOP) (h) [2] = target: T2, μ (MOP) (h) (Homo sapiens, UniProt P35372); format: cell-based
α2B (h) [3] = target: T1, α2B (h); assay: α2B (h) (antagonist effect) cellular functional assay; format: cell-based
Protocol: as §1

CYP3A4 [4] = settings: human hepatocytes, 72 hr, any concentration tested
[5] = Bioavailability and stability evaluation; settings: summary
CYP3A4 [6] = target: T3, CYP3A4 (Homo sapiens, UniProt P08684); settings: 0.1-25 μM, human liver microsomes, substrate midazolam
CYP1A2 [7] = target: CYP1A2 (Homo sapiens, UniProt P05177); settings: 0.1-25 μM, human liver microsomes, phenacetin
CYP2C19 = CYP2C19 (Homo sapiens, UniProt P33261); assay: CYP2C19 inhibition, human liver microsomes (mephenytoin); settings: up to 25 micromolar
CYP2B6 [8] = settings: human hepatocytes, 72 hr, at 100 μM
[9] = Binding to plasma proteins; format: in vitro ADME; settings: very small species differences
[10] = tested on: L-DOPA induced dyskinesias; assay: L-DOPA induced dyskinesias, Primate in vivo model
CYP3A4 [11] = target: T3, CYP3A4; settings: 0.1-25 μM, human liver microsomes, substrate testosterone
[12] = Brain tissue binding, equilibrium dialysis, mouse; settings: 5 μM
[13] = tested on: L-DOPA induced dyskinesias; assay: L-DOPA induced dyskinesias, Rodent in vivo model
hERG potassium channel = hERG potassium channel (Homo sapiens, UniProt Q12809); assay: hERG channel inhibition, IonWorks automated patch clamp, CHO-hERG cells; settings: up to 25 micromolar
Caco-2 cells = assay: Caco-2 permeability (bi-directional); settings: 10 μM, pH gradient (pH 6.8/7.4)
[14] = Caco-2 permeability (bi-directional); settings: human, Caco-2, pH 6.8
CYP2C8 = CYP2C8 (Homo sapiens, UniProt P10632); assay: CYP2C8 inhibition, human liver microsomes (paclitaxel); settings: 0.1-25 μM
CYP2D6 = target: T4, CYP2D6 (Homo sapiens, UniProt P10635); assay: Time dependent inhibition of CYP2D6 (dextromethorphan; IC50 shift); format: in vitro ADME
T4 construct: from tissue
Protocol: Six test compound concentrations (0.1, 0.25, 1, 2.5, 10, 25 μM; final DMSO concentration 0.25%, final microsome concentration 0.5 mg/mL) were either pre-incubated for 30 min in the absence and presence of NADPH or undergo a 0 min pre-incubation. The probe substrate dextromethorphan (5 μM) and NADPH (1 mM) were then added (final DMSO concentration 0.3%) and the samples incubated for 5 min at 37° C. The selective time dependent CYP2D6 inhibitor, paroxetine, was screened alongside the test compounds as a positive control. The reactions were terminated by the addition of an aliquot of the incubation into methanol. The samples were centrifuged at 2500 rpm for 30 min at 4° C., and aliquots of the supernatant are diluted with formic acid in deionised water (final concentration 0.1%) containing internal standard prior to analysis of dextrorphan by LC-MS/MS.

CYP2C9 = CYP2C9 (Homo sapiens, UniProt P11712); assay: CYP2C9 inhibition, human liver microsomes (tolbutamide); settings: 0.1-25 μM
CYP2B6 [15] = target: CYP2B6 (Homo sapiens, UniProt P20813); settings: 0.1-25 μM, human liver microsomes, bupropion
[16] = tested on: L-dopa-induced dyskinesia; assay: L-dopa-induced dyskinesia, comparison with amantadine; format: in vivo; settings: model not specified
P-glycoprotein (MDR1) = assay: MDR1-MDCK permeability and P-gp substrate identification (bi-directional); format: in vitro ADME, canine; settings: dog, MDCK-MDR1, pH 7.4; minus inhibitor (no cyclosporin A)
Protocol: (§2) Cells were then incubated with HBSS at the desired pH in both apical and basolateral compartments for 40 min to stabilize physiological parameters.
(§3) The fluorescent integrity marker lucifer yellow was also included in the dosing solution. […] Analytical standards were prepared from test compound DMSO dilutions and transferred to buffer, maintaining a 1% v/v DMSO concentration.
(§4) For assessment of A-B permeability, HBSS was removed from the apical compartment and replaced with test compound dosing solution. […] For assessment of B-A permeability, HBSS was removed from the companion plate and replaced with test compound dosing solution. […] Test compound permeability was assessed in duplicate. Compounds of known permeability characteristics were run as controls on each assay plate. […] Cyprotex generic analytical conditions were used. The starting concentration (C0) was determined from the dosing solution and the experimental recovery calculated from C0 and both apical and basolateral compartment concentrations.
(§5) The integrity of the monolayer throughout the experiment was checked by monitoring lucifer yellow permeation using fluorimetric analysis.

MDR1-MDCK cells = assay: as above; format: in vitro ADME, canine; settings: 10 μM, MDR1-MDCK, pH 7.4
Protocol: as §2, §3, §4, §5

CYP1A2 [17] = settings: human hepatocytes, 72 hr, any concentration tested
[18] = Toxicity in animal models; format: in vivo; settings: many animal models, even at high concentrations
μ (MOP) (h) [19] = target: T2, μ (MOP) (h); format: binding
μ (MOP) (h) [20] = target: T2, μ (MOP) (h); assay: μ (MOP) (h) (agonist effect) cellular functional assay; format: cell-based
Protocol: as §1

δ2 (DOP) (h) = δ2 (DOP) (h) (Homo sapiens, UniProt P41143); format: binding
Chain of δ2 (DOP) (h) (P41143 whole entry): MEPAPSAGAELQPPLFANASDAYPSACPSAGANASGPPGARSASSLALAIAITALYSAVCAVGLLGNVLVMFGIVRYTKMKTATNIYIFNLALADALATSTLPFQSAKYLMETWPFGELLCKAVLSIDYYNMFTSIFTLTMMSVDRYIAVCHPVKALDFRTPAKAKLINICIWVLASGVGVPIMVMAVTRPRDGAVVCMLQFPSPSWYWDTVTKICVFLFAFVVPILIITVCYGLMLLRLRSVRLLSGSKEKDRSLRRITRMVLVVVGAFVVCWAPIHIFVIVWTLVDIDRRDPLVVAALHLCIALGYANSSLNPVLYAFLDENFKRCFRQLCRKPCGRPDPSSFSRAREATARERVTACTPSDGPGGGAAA

Chain of κ (KOP) (P34975 whole entry): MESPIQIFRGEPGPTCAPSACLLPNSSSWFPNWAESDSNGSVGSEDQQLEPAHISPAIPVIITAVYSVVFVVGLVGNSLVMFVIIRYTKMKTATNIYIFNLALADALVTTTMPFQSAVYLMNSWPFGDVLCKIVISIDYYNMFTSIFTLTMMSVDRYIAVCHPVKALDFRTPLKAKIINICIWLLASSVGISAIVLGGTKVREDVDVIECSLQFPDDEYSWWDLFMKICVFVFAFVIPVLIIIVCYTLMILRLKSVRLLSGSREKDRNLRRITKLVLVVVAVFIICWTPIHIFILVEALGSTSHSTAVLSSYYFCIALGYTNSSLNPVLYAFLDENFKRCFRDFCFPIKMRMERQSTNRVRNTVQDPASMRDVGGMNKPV
T2 sequence (P35372 whole entry): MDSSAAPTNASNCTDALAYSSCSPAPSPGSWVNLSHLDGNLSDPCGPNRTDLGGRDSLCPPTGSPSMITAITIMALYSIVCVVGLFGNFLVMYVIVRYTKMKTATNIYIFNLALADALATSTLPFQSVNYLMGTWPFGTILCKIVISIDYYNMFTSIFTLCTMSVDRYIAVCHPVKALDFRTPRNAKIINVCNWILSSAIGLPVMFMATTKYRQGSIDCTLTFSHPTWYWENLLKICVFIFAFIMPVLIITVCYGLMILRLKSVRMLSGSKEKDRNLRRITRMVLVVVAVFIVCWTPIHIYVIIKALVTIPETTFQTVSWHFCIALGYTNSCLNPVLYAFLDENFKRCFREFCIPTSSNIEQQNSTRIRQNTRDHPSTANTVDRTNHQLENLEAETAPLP
T4 sequence (P10635 whole entry): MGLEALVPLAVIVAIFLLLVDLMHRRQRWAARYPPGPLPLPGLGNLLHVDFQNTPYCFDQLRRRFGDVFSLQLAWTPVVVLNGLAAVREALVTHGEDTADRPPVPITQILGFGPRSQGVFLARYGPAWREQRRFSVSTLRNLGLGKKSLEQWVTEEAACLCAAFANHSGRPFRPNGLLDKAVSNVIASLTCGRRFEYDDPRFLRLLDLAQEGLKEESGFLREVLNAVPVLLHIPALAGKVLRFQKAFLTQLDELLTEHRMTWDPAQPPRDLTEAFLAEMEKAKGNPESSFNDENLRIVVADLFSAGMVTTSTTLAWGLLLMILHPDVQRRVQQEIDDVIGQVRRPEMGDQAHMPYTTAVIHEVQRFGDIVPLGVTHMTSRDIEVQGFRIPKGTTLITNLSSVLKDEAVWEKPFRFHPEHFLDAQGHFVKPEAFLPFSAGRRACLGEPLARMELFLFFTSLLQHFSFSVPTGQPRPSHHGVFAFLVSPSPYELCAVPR
T3 sequence (P08684 whole entry): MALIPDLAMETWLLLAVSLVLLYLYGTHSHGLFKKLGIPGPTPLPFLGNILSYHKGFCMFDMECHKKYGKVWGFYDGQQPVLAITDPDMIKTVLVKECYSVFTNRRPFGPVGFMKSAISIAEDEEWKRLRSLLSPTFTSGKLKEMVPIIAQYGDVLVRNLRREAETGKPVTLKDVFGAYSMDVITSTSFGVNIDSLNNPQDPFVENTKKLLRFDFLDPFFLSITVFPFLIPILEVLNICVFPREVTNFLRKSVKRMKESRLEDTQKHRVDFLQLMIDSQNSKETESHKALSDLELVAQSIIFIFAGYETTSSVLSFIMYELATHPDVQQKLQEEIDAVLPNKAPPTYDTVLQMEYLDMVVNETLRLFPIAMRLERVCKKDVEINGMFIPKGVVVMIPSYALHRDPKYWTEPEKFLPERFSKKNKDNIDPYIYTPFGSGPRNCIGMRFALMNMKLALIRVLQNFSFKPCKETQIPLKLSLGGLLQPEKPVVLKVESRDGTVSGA
Chain of hERG potassium channel (Q12809 whole entry): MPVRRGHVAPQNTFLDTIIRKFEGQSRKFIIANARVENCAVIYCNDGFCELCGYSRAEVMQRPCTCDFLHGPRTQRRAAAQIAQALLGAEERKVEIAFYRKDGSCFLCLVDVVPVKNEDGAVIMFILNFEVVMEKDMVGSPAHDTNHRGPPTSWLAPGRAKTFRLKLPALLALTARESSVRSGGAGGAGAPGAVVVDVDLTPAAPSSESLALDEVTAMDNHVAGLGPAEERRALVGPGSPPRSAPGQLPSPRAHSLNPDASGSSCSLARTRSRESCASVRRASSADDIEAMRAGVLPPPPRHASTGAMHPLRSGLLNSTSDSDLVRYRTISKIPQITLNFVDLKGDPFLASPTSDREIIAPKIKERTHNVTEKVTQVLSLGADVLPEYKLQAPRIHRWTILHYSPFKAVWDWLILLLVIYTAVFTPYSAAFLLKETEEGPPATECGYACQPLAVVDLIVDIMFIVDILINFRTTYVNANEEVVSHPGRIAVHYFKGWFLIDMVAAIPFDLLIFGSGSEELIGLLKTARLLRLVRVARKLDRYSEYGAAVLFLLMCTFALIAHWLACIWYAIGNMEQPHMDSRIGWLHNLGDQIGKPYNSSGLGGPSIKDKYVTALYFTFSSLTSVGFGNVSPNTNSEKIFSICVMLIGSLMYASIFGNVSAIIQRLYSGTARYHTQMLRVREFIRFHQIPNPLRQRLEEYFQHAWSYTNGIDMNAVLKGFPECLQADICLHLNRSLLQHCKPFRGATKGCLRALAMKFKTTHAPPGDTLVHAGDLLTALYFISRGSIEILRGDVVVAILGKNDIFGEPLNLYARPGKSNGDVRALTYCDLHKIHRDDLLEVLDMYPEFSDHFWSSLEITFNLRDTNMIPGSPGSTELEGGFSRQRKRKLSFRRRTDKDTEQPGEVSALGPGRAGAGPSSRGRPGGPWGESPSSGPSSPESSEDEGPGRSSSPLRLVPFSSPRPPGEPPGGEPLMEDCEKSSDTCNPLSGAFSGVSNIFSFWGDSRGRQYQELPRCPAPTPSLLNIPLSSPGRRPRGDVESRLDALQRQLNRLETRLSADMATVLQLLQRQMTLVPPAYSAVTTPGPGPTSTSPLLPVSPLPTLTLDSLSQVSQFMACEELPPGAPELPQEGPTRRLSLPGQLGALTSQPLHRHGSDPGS
Chain of CYP2C8 (P10632 whole entry): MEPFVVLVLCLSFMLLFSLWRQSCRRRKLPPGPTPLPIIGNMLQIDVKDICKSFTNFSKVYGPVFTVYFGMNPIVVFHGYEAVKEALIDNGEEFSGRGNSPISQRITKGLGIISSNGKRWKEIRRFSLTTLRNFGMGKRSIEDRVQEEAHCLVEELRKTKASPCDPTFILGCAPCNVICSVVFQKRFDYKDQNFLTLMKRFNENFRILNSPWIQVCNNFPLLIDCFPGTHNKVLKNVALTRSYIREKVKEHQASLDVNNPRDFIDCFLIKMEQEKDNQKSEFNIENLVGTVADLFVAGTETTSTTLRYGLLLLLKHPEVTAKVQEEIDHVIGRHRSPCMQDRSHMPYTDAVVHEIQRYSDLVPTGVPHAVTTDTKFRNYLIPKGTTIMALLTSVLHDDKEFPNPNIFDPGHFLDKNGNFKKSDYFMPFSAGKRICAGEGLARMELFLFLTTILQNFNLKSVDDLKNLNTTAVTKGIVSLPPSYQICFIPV
Chain of CYP1A2 (Homo sapiens, UniProt P05177) (P05177 whole entry): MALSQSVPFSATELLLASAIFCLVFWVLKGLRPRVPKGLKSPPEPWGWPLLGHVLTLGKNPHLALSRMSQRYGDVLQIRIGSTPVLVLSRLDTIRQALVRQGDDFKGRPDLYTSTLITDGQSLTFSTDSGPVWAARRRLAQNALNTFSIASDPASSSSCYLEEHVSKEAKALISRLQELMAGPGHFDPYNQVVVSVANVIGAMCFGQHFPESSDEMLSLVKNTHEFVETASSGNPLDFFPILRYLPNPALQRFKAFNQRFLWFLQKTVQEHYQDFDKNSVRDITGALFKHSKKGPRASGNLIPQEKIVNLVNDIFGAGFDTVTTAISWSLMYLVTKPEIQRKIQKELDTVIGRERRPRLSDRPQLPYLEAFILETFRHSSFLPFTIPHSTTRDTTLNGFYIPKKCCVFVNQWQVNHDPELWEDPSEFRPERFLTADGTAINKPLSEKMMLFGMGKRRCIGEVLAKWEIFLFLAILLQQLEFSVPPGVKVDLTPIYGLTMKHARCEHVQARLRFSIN
Chain of CYP2C9 (P11712 whole entry): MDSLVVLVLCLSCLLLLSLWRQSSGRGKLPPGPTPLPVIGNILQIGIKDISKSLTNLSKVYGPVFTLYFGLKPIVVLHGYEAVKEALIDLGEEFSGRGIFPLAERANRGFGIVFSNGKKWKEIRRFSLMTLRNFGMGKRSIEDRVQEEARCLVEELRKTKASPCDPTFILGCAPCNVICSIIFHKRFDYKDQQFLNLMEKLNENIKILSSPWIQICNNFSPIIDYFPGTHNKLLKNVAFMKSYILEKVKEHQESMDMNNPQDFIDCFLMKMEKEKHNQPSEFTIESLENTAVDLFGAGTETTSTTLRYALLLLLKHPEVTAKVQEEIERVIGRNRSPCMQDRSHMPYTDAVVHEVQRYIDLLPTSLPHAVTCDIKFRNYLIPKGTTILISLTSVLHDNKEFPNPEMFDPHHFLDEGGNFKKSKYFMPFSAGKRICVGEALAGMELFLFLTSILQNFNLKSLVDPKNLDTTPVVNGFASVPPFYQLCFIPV

## O=C(CCCCCCCBr)NC1CCN(CCc2ccccc2)CC1 [8-bromo-N-(1-phenethylpiperidin-4-yl)octanamide]
κ (KOP)
  nH: 0.5
α2B (h) [1]
  IC50: 5.7 µM
  Ki: 3.8 µM
  nH: 0.8
μ (MOP) (h) [2]
  nH: 0.4
α2B (h) [3]
  IC50: 360 µM
  Kb: 46 µM

## CCC(=O)NC1CCN(CCc2ccccc2)CC1 [HCV-3, N-(1-phenethylpiperidin-4-yl)propionamide]
CYP3A4 [4]
  CYP3A4 mRNA expression: didn't cause a statistically significant change
[5]
  bioavailability: highly bioavailable
CYP3A4 [6]
  CYP3A4 inhibition: No significant inhibition
CYP1A2 [7]
  CYP1A2 inhibition: No significant inhibition
CYP2C19
  CYP2C19 IC50: too weak to generate an IC50 value
CYP2B6 [8]
  CYP2B6 mRNA expression: slight, yet statistically significant decrease
[9]
  binding to plasma proteins: weak, or no noticeable binding
[10]
  inhibition of L-DOPA induced dyskinesias: significant inhibition
CYP3A4 [11]
  CYP3A4 inhibition: No significant inhibition
[12]
  binding: no binding at all could be detected
[13]
  inhibition of L-DOPA induced dyskinesias: significant inhibition
hERG potassium channel
  hERG inhibition activity (conclusion): weak or no significant hERG inhibition activity
Caco-2 cells
  permeability in the Caco-2 assay: highly permeable in both directions
[14]
  efflux ratio at 120 min, 10 µM: 2.7
CYP2C8
  CYP2C8 inhibition: No significant inhibition
CYP2D6; 25 μM, 30 minute plus NADPH incubation
  CYP2D6 inhibition: approximately 40%
CYP2D6; IC50 shift, 30 min pre-incubation with/without NADPH
  time-dependent CYP2D6 inhibition (conclusion): no evidence of time-dependent CYP2D6 inhibition
CYP2D6; human, microsomes, probe dextromethorphan (5 µM), 0 minute incubation
  IC50 at 5 min: > 25 µM
CYP2D6; human, microsomes, probe dextromethorphan (5 µM), 25 μM, 0 minute incubation
  inhibition at 5 min, 25 µM: ~40%
CYP2C9
  CYP2C9 inhibition: No significant inhibition
CYP2B6 [15]
  CYP2B6 inhibition: No significant inhibition
[16]
  effectiveness compared with amantadine: significantly more effective than amantadine
P-glycoprotein (MDR1)
  efflux ratio at 60 min, 10 µM: 1.48
MDR1-MDCK cells
  permeability in the MDCK assay: highly permeable
CYP1A2 [17]
  CYP1A2 mRNA expression: didn't cause a statistically significant change
[18]
  toxicity: virtually no toxicity

## CCC(=O)NC1CCN(CCC(=O)OC)CC1 [Methyl 3-(4-propionamidopiperidin-1-yl)propanoate]
κ (KOP)
  nH: 0.8
μ (MOP) (h) [19]
  nH: 0.5
α2B (h) [1]
  IC50: 260 µM
  Ki: 180 µM
  nH: 1
μ (MOP) (h) [20]
  EC50: 290 µM

## CCC(=O)NC1CCN(CCc2cccs2)CC1 [N-(1-(2-(thiophen-2-yl)ethyl)piperidin-4-yl)propionamide]
κ (KOP)
  nH: 0.6
α2B (h) [1]
  IC50: 11 µM
  Ki: 7.6 µM
  nH: 1.2
μ (MOP) (h) [2]
  nH: 0.6
α2B (h) [3]
  IC50: 440 µM
  Kb: 57 µM
δ2 (DOP) (h)
  nH: 0.9

## O=C(NC1CCN(CCc2ccccc2)CC1)c1ccccc1 [N-(1-phenethylpiperidin-4-yl)benzamide]
κ (KOP)
  nH: 0.6
μ (MOP) (h) [19]
  nH: 0.9
α2B (h) [1]
  IC50: 4 µM
  Ki: 0.27 µM
  nH: 1.3
α2B (h) [3]
  IC50: 350 µM
  Kb: 46 µM
δ2 (DOP) (h)
  nH: 0.7

## O=C(NC1CCN(CCc2ccccc2)CC1)c1ccco1 [N-(1-phenethylpiperidin-4-yl)furan-2-carboxamide]
κ (KOP)
  nH: 1.1
μ (MOP) (h) [19]
  nH: 0.8
α2B (h) [1]
  IC50: 4.6 µM
  Ki: 3 µM
  nH: 0.7
α2B (h) [3]
  IC50: 380 µM
  Kb: 50 µM
δ2 (DOP) (h)
  nH: 1

## O=C(NC1CCN(CCc2ccccc2)CC1)c1ccoc1 [N-(1-phenethylpiperidin-4-yl)furan-3-carboxamide]
κ (KOP)
  nH: 1.1
μ (MOP) (h) [19]
  nH: 0.8
α2B (h) [1]
  IC50: 3 µM
  Ki: 3 µM
  nH: 0.7
α2B (h) [3]
  IC50: 230 µM
  Kb: 50 µM
δ2 (DOP) (h)
  nH: 1
